Data reported in ChEMBL document CHEMBL1152417, “The identification and optimisation of novel and selective diamide neuropeptide Y Y2 receptor antagonists” (Bioorg Med Chem Lett, 2009).

Each compound was assayed on Brain (assay: Drug level in rat brain assessed as tissue binding).
Assay type: ADME, tissue-based

Row | Compound | Brain tissue binding (percent bound)
1 | O=C(Nc1ccc(N2CCN(C(=O)c3ccccc3)CC2)c(Cl)c1)C(c1ccccc1)c1ccccn1 (racemic) | 99.7%
2 | O=C(Cc1ccccc1)Nc1ccc(N2CCN(C(=O)c3ccccc3)CC2)c(Cl)c1 | 99%
3 | CC(C)(C(=O)Nc1ccc(N2CCN(C(=O)c3ccccc3)CC2)c(Cl)c1)c1ccccc1 | 99.5%
